Source: PubChem BioAssay (NCI)
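Results reflect a 48-hour exposure of cells in 96-well plates to compound at five concentrations. Definition used: TGI = concentration required for complete inhibition of growth.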

How the values were obtained:
Assay in all cases: NCI-60 cell line screen, 48 h
[1] = test system: 786-0 renal
[2] = test system: A549 NSCLC
[3] = test system: ACHN renal
[4] = test system: BT-549 breast
[5] = test system: CAKI-1 renal
[6] = test system: CCRF-CEM leukemia
[7] = test system: COLO 205 colon
[8] = test system: DU-145 prostate
[9] = test system: EKVX NSCLC
[10] = test system: HCC-2998 colon
[11] = test system: HCT-116 colon
[12] = test system: HCT-15 colon
[13] = test system: HOP-62 NSCLC
[14] = test system: HOP-92 NSCLC
[15] = test system: HT29 colon
[16] = test system: IGROV1 ovarian
[17] = test system: K-562 leukemia
[18] = test system: KM12 colon
[19] = test system: LOX IMVI melanoma
[20] = test system: M14 melanoma
[21] = test system: MALME-3M melanoma
[22] = test system: MCF7 breast
[23] = test system: MDA-MB-231 breast
[24] = test system: MDA-MB-435
[25] = test system: MDA-N
[26] = test system: MOLT-4 leukemia
[27] = test system: NCI-H226 lung
[28] = test system: NCI-H23 lung
[29] = test system: NCI-H460 lung
[30] = test system: NCI-H522 lung
[31] = test system: NCI/ADR-RES ovarian
[32] = test system: OVCAR-3 ovarian
[33] = test system: OVCAR-4 ovarian
[34] = test system: OVCAR-5 ovarian
[35] = test system: OVCAR-8 ovarian
[36] = test system: PC-3 prostate
[37] = test system: RPMI-8226 leukemia
[38] = test system: RXF 393 renal
[39] = test system: SF-295 CNS
[40] = test system: SF-539 CNS
[41] = test system: SK-MEL-2 melanoma
[42] = test system: SK-MEL-28 melanoma
[43] = test system: SK-MEL-5 melanoma
[44] = test system: SK-OV-3 ovarian
[45] = test system: SN12C renal
[46] = test system: SNB-19 CNS
[47] = test system: SNB-75 CNS
[48] = test system: SR leukemia
[49] = test system: SW-620 colon
[50] = test system: T-47D breast
[51] = test system: TK-10 renal
[52] = test system: U251 CNS
[53] = test system: UACC-257 melanoma
[54] = test system: UACC-62 melanoma
[55] = test system: UO-31 renal
[56] = test system: HL-60(TB) leukemia
[57] = test system: HS 578T breast
[58] = test system: SF-268 CNS
[59] = test system: A498 renal

Compound: CCN(C(=S)N[C@@H](Cc1ccccc1)C(=O)N[C@@H](CC(C)C)C(=O)OC)c1ccccc1
- TGI [1]: > 100 µM
- TGI [2]: > 100 µM
- TGI [3]: > 100 µM
- TGI [4]: > 100 µM
- TGI [5]: > 100 µM
- TGI [6]: > 100 µM
- TGI [7]: > 100 µM
- TGI [8]: > 100 µM
- TGI [9]: > 100 µM
- TGI [10]: > 100 µM
- TGI [11]: > 100 µM
- TGI [12]: > 100 µM
- TGI [13]: > 100 µM
- TGI [14]: > 100 µM
- TGI [15]: > 100 µM
- TGI [16]: > 100 µM
- TGI [17]: > 100 µM
- TGI [18]: > 100 µM
- TGI [19]: > 100 µM
- TGI [20]: > 100 µM
- TGI [21]: > 100 µM
- TGI [22]: > 100 µM
- TGI [23]: > 100 µM
- TGI [24]: > 100 µM
- TGI [25]: > 100 µM
- TGI [26]: 81.2 µM
- TGI [27]: > 100 µM
- TGI [28]: > 100 µM
- TGI [29]: > 100 µM
- TGI [30]: > 100 µM
- TGI [31]: > 100 µM
- TGI [32]: > 100 µM
- TGI [33]: > 100 µM
- TGI [34]: > 100 µM
- TGI [35]: > 100 µM
- TGI [36]: > 100 µM
- TGI [37]: > 100 µM
- TGI [38]: > 100 µM
- TGI [39]: > 100 µM
- TGI [40]: > 100 µM
- TGI [41]: > 100 µM
- TGI [42]: > 100 µM
- TGI [43]: > 100 µM
- TGI [44]: > 100 µM
- TGI [45]: > 100 µM
- TGI [46]: > 100 µM
- TGI [47]: > 100 µM
- TGI [48]: 61.6 µM
- TGI [49]: > 100 µM
- TGI [50]: > 100 µM
- TGI [51]: > 100 µM
- TGI [52]: > 100 µM
- TGI [53]: > 100 µM
- TGI [54]: > 100 µM
- TGI [55]: > 100 µM

Compound: C1=CC2=CC=CC3c4nc5ccc6ccccc6c5nc4C(=C1)C23 (configuration not stated)
- TGI [1]: > 100 µM
- TGI [2]: > 100 µM
- TGI [3]: > 100 µM
- TGI [5]: > 100 µM
- TGI [6]: > 100 µM
- TGI [7]: > 100 µM
- TGI [8]: > 100 µM
- TGI [9]: > 100 µM
- TGI [10]: > 100 µM
- TGI [11]: > 100 µM
- TGI [12]: > 100 µM
- TGI [56]: > 100 µM
- TGI [13]: > 100 µM
- TGI [14]: > 100 µM
- TGI [57]: > 100 µM
- TGI [15]: > 100 µM
- TGI [16]: > 100 µM
- TGI [17]: > 100 µM
- TGI [18]: > 100 µM
- TGI [19]: > 100 µM
- TGI [20]: > 100 µM
- TGI [21]: > 100 µM
- TGI [22]: > 100 µM
- TGI [23]: > 100 µM
- TGI [24]: > 100 µM
- TGI [25]: > 100 µM
- TGI [26]: > 100 µM
- TGI [27]: > 100 µM
- TGI [28]: > 100 µM
- TGI [29]: > 100 µM
- TGI [31]: > 100 µM
- TGI [32]: > 100 µM
- TGI [33]: > 100 µM
- TGI [34]: > 100 µM
- TGI [35]: > 100 µM
- TGI [36]: > 100 µM
- TGI [37]: > 100 µM
- TGI [38]: > 100 µM
- TGI [58]: > 100 µM
- TGI [39]: > 100 µM
- TGI [40]: > 100 µM
- TGI [41]: > 100 µM
- TGI [42]: > 100 µM
- TGI [43]: > 100 µM
- TGI [44]: > 100 µM
- TGI [45]: > 100 µM
- TGI [46]: > 100 µM
- TGI [47]: > 100 µM
- TGI [48]: > 100 µM
- TGI [49]: > 100 µM
- TGI [50]: > 100 µM
- TGI [51]: > 100 µM
- TGI [52]: > 100 µM
- TGI [53]: > 100 µM
- TGI [54]: > 100 µM
- TGI [55]: > 100 µM

Compound: CC1(C)[C@@H]2CC[C@@]1(C)[C@@H]1O[C@@H](O[C@@H](CN)c3cc(Cl)c(OCc4ccccc4)c(OCc4ccccc4)c3)C[C@H]21
- TGI [59]: 0.344 µM
- TGI [3]: 0.306 µM
- TGI [5]: 0.301 µM
- TGI [6]: 0.364 µM
- TGI [8]: 0.332 µM
- TGI [9]: 0.301 µM
- TGI [56]: 0.373 µM
- TGI [15]: 0.284 µM
- TGI [17]: 0.478 µM
- TGI [18]: 0.305 µM
- TGI [21]: 0.342 µM
- TGI [22]: 0.262 µM
- TGI [23]: 0.288 µM
- TGI [24]: 0.297 µM
- TGI [25]: 0.284 µM
- TGI [26]: 0.341 µM
- TGI [30]: 0.357 µM
- TGI [32]: 0.306 µM
- TGI [33]: 0.298 µM
- TGI [34]: 0.302 µM
- TGI [36]: 0.292 µM
- TGI [37]: 0.225 µM
- TGI [38]: 0.288 µM
- TGI [41]: 0.311 µM
- TGI [42]: 0.384 µM
- TGI [43]: 0.324 µM
- TGI [48]: 0.222 µM
- TGI [49]: 0.43 µM
- TGI [52]: 0.293 µM
- TGI [53]: 0.322 µM

Compound: Cc1nn(C(=O)Cc2ccccc2)c2c1C(c1ccc(O)cc1)SC(N)=N2 (configuration not stated)
- TGI [1]: > 100 µM
- TGI [59]: > 100 µM
- TGI [2]: > 100 µM
- TGI [3]: > 100 µM
- TGI [4]: > 100 µM
- TGI [5]: > 100 µM
- TGI [6]: > 100 µM
- TGI [7]: > 100 µM
- TGI [8]: > 100 µM
- TGI [9]: > 100 µM
- TGI [10]: > 100 µM
- TGI [11]: > 100 µM
- TGI [12]: > 100 µM
- TGI [56]: > 100 µM
- TGI [13]: > 100 µM
- TGI [57]: > 100 µM
- TGI [15]: > 100 µM
- TGI [16]: > 100 µM
- TGI [17]: > 100 µM
- TGI [18]: > 100 µM
- TGI [19]: > 100 µM
- TGI [20]: > 100 µM
- TGI [21]: > 100 µM
- TGI [22]: > 100 µM
- TGI [23]: > 100 µM
- TGI [24]: > 100 µM
- TGI [25]: > 100 µM
- TGI [26]: > 100 µM
- TGI [27]: > 100 µM
- TGI [28]: > 100 µM
- TGI [29]: > 100 µM
- TGI [30]: > 100 µM
- TGI [35]: > 100 µM
- TGI [36]: > 100 µM
- TGI [37]: > 100 µM
- TGI [58]: > 100 µM
- TGI [39]: > 100 µM
- TGI [40]: > 100 µM
- TGI [42]: > 100 µM
- TGI [43]: > 100 µM
- TGI [44]: > 100 µM
- TGI [45]: > 100 µM
- TGI [46]: > 100 µM
- TGI [47]: > 100 µM
- TGI [48]: > 100 µM
- TGI [49]: > 100 µM
- TGI [50]: > 100 µM
- TGI [51]: > 100 µM
- TGI [53]: > 100 µM
- TGI [54]: > 100 µM
- TGI [55]: > 100 µM
